Data set [1] can be described thus: logP by HPLC on reversed-phase column (EEC Directive 79/831 Annex V.A8). As to conditions: HPLC on reversed-phase column (C 18), 40° C., 0.1% aqueous formic acid and acetonitrile, linear gradient 10% to 90% acetonitrile. Format: physicochemical. The protocol:
In table 1, the logP values were determined in accordance with EEC Directive 79/831 Annex V.A8 by HPLC (High Performance Liquid Chromatography) on a reversed-phase column (C 18), using the method described below: Temperature: 40° C.; Mobile phases: 0.1% aqueous formic acid and acetonitrile; linear gradient from 10% acetonitrile to 90% acetonitrile. Calibration was carried out using unbranched alkan-2-ones (comprising 3 to 16 carbon atoms) with known logP values (determination of the logP values by the retention times using linear interpolation between two successive alkanones). lambda-max-values were determined using UV-spectra from 200 nm to 400 nm and the peak values of the chromatographic signals.

The next data set deals with Alternaria solani. As to the kind of experiment: In vivo preventive test on Alternaria solani (tomato). Particulars: 500 ppm of active ingredient, evaluated 7 days after inoculation. On the procedure:
The plants remain for one day in an incubation cabinet at approximately 22° C. and a relative atmospheric humidity of 100%. Then the plants are placed in an incubation cabinet at approximately 20° C. and a relative atmospheric humidity of 96%.

The next data set concerns Pyrenophora teres. Nature of the data set: In vivo preventive test on Pyrenophora teres (barley). Particulars: 500 ppm of active ingredient, evaluated 7-9 days after inoculation. On the procedure:
The plants remain for 48 hours in an incubation cabinet at 22° C. and a relative atmospheric humidity of 100%.

In a further data set the test system is Sphaerotheca fuliginea. As to the kind of experiment: In vivo preventive test on Sphaerotheca fuliginea (cucumber). As to conditions: 500 ppm of active ingredient, evaluated 7 days after inoculation.

Results on 50 compounds are retold here after patent US8614242B2, “1-(heterocyclic carbonyl)-2-substituted pyrrolidines” (Bayer Intellectual Property GmbH, priority 2010, dated 2013).

On to `Cn1nc(C(F)F)c(C(=O)N2CCCC2c2ccc(Cl)c(Cl)c2)c1Cl` (stereo not shown) [Example 25], for which the logP in data set [1] was found to be 3.37. Further, the Efficacy in the data set with Alternaria solani and with Pyrenophora teres was 95% in each case.

Turning to `Cn1nc(C(F)F)c(C(=O)N2CCCC2c2ccco2)c1F` (stereo not shown) [Example 42], the lipophilicity (logP) in data set [1] is 2.13.

As for `Cn1nc(C(F)F)c(C(=O)N2CCCC2c2ccccc2C(F)(F)F)c1Cl` (stereo not shown) [Example 14], in data set [1], the logP worked out at 3.19. Further, the values for the Efficacy in the data set with Alternaria solani and in the data set with Pyrenophora teres were 95% and 90%, respectively.

Take `CC(c1ccccc1Cl)C1CCCN1C(=O)c1c(C(F)F)nn(C)c1F` (mixture of isomers) [Example 62]: the lipophilicity (logP) in data set [1] is listed as 3.29.

Turning to `Cn1nc(C(F)F)c(C(=O)N2CCCC2c2ccccc2Br)c1F` (stereo not shown) [Example 32], the logP in data set [1] is recorded as 2.98. The Efficacy was determined as 95% with Sphaerotheca fuliginea, 95% with Alternaria solani and 100% in the data set on Pyrenophora teres.

On to `Cn1nc(C(F)F)c(C(=O)N2CCCC2Cc2cccc3ccccc23)c1F` (racemic) [Example 83], for which the logP in data set [1] turned out to be 3.52. In addition, the Efficacy in the data set with Alternaria solani and with Pyrenophora teres was 100% throughout.

For the compound `CC(c1cc(Cl)ccc1Cl)C1CCCN1C(=O)c1c(C(F)F)nn(C)c1Cl` (mixture of isomers) [Example 74], in data set [1], the logP turned out to be 3.96.

For the compound `COc1ccccc1C1CCCN1C(=O)c1c(C(F)F)nn(C)c1F` (stereo not shown) [Example 3], in data set [1], the logP is recorded as 2.59. For the same compound, the Efficacy in the data set on Alternaria solani is reported as 80%.

Regarding `Cn1nc(C(F)F)c(C(=O)N2CCCC2c2cccnc2)c1F` (stereo not shown) [Example 44], the lipophilicity (logP) in data set [1] is reported as 0.48.

The compound `Cn1nc(C(F)F)c(C(=O)N2CCCC2c2ccc(-c3ccccc3)cc2)c1Cl` (stereo not shown) [Example 30] gave a logP in data set [1] of 3.65. The compound further yielded an Efficacy with Pyrenophora teres of 100%.

In the case of `Cn1nc(C(F)F)c(C(=O)N2CCCC2c2ccc3c(c2)OCO3)c1F` (stereo not shown) [Example 11], the logP in data set [1] was 2.35. In the data set on Pyrenophora teres, this compound showed an Efficacy of 70%.

Turning to `Cn1nc(C(F)F)c(C(=O)N2CCCC2c2cc(C(F)(F)F)cc(C(F)(F)F)c2)c1Cl` (stereo not shown) [Example 40], in data set [1], the logP came out at 3.79. Also, the Efficacy in the data set with Alternaria solani and in the data set with Pyrenophora teres was 95% each time.

For `Cn1nc(C(F)F)c(C(=O)N2CCCC2c2nc3ccccc3s2)c1Cl` (stereo not shown) [Example 50], the logP in data set [1] is on record as 2.61.

In turn, `Cn1nc(C(F)F)c(C(=O)N2CCCC2c2ccc(Cl)cc2Cl)c1Cl` (stereo not shown) [Example 23] displayed a log partition coefficient (logP) in data set [1] of 3.57. The results for the Efficacy in the data set on Alternaria solani and in the data set with Pyrenophora teres were 95% and 100%, respectively.

`CC(c1c(Cl)cccc1Cl)C1CCCN1C(=O)c1c(C(F)F)nn(C)c1F` (mixture of isomers) [Example 78] displayed a lipophilicity (logP) in data set [1] of 3.52.

For the compound `Cn1nc(C(F)F)c(C(=O)N2CCC[C@H]2COc2ccc(Cl)cc2)c1F` [Example 85], the logP in data set [1] was found to be 3.29.

In turn, `Cn1nc(C(F)F)c(C(=O)N2CCCC2c2cc3ccccc3s2)c1F` (stereo not shown) [Example 48] gave a lipophilicity (logP) in data set [1] of 3.11. Besides, the Efficacy in the data set on Sphaerotheca fuliginea is 93%; in the data set on Pyrenophora teres it was 100%.

As to `Cn1nc(C(F)F)c(C(=O)N2CCCC2c2cc(F)cc(F)c2)c1Cl` (stereo not shown) [Example 9], in data set [1], the logP is listed as 2.82. The Efficacy in the data set with Pyrenophora teres stood at 90%.

`Cc1ccccc1C1CCCN1C(=O)c1c(C(F)F)nn(C)c1Cl` (stereo not shown) [Example 1] displayed a logP in data set [1] of 2.90. Besides, the Efficacy in the data set with Alternaria solani and in the data set on Pyrenophora teres was 80% each time.

In the case of `Cn1nc(C(F)F)c(C(=O)N2CCCC2c2ccccn2)c1F` (stereo not shown) [Example 43], the log partition coefficient (logP) in data set [1] came out at 0.92.

The compound `Cn1nc(C(F)F)c(C(=S)N2CCCC2c2cccc(C(F)(F)F)c2)c1Cl` (stereo not shown) [Example 19] had a logP in data set [1] of 3.79. In the data set with Pyrenophora teres, this compound displayed an Efficacy of 100%.

In turn, `Cn1nc(C(F)F)c(C(=O)N2CCCC2CS(=O)(=O)c2ccccc2)c1F` (racemic) [Example 87] came in with a logP in data set [1] of 2.13.

In the case of `Cn1nc(C(F)F)c(C(=O)N2CCCC2c2ccc(-c3ccccc3)cc2)c1F` (stereo not shown) [Example 29], the log partition coefficient (logP) in data set [1] is reported as 3.50. Also, the results for the Efficacy in the data set with Alternaria solani and in the data set with Pyrenophora teres were 95% and 100%, respectively.

`Cn1nc(C(F)F)c(C(=O)N2CCCC2c2ccc(Cl)cc2)c1Cl` (stereo not shown) [Example 7] registered a logP in data set [1] of 3.04. In addition, the Efficacy in the data set with Alternaria solani is 95%; in the data set with Pyrenophora teres, 70%.

`Cn1nc(C(F)F)c(C(=O)N2CCCC2c2cccc3ccccc23)c1F` (stereo not shown) [Example 41] returned a logP in data set [1] of 3.08. Further, the Efficacy in the data set with Sphaerotheca fuliginea is reported as 75%; in the data set with Pyrenophora teres, 90%.

In turn, `Cn1nc(C(F)F)c(C(=O)N2CCCC2c2cc3ccccc3s2)c1Cl` (stereo not shown) [Example 49] yielded a log partition coefficient (logP) in data set [1] of 3.25. This compound had an Efficacy in the data set with Pyrenophora teres of 95%.

In data set [1], `Cn1nc(C(F)F)c(C(=S)N2CCCC2Cc2cccc(Cl)c2Cl)c1F` (racemic) [Example 70] showed a logP of 4.46. Moreover, the Efficacy turned out to be 95% in the data set with Alternaria solani and 100% with Pyrenophora teres.

The compound `CC(c1c(Cl)cccc1Cl)C1CCCN1C(=O)c1c(C(F)F)nn(C)c1Cl` (mixture of isomers) [Example 79] returned a logP in data set [1] of 3.81.

Compound `Cn1nc(C(F)F)c(C(=O)N2CCCC2c2ccc(Cl)cc2)c1F` (stereo not shown) [Example 8] gave a logP in data set [1] of 2.90. Besides, the Efficacy in the data set with Alternaria solani and in the data set on Pyrenophora teres was 100% throughout.

For the compound `CC(c1ccc(Cl)cc1Cl)C1CCCN1C(=O)c1c(C(F)F)nn(C)c1Cl` (mixture of isomers) [Example 72], the log partition coefficient (logP) in data set [1] is 4.06.

With `Cn1nc(C(F)F)c(C(=O)N2CCCC2c2ccccc2Cl)c1Cl` (stereo not shown) [Example 5], the log partition coefficient (logP) in data set [1] is 3.04. Moreover, the Efficacy in the data set with Alternaria solani and with Pyrenophora teres was 80% each time.

In turn, `Cn1nc(C(F)F)c(C(=O)N2CCCC2Cc2c(Cl)cccc2Cl)c1Cl` (racemic) [Example 75] showed a logP in data set [1] of 3.50. Further, the Efficacy was 90% with Alternaria solani and 100% in the data set on Pyrenophora teres.

In data set [1], `Cn1nc(C(F)F)c(C(=O)N2CCCC2c2ccccc2Br)c1Cl` (stereo not shown) [Example 31] yielded a logP of 3.09. The Efficacy with Alternaria solani worked out at 90%; in the data set with Pyrenophora teres, 95%.

For the compound `COc1ccc(C2CCCN2C(=O)c2c(C(F)F)nn(C)c2F)cc1` (stereo not shown) [Example 4], the logP in data set [1] worked out at 2.42. In the data set with Alternaria solani, this compound showed an Efficacy of 80%.

For `Cn1nc(C(F)F)c(C(=O)N2CCCC2c2ccc(C(F)(F)F)cc2)c1Cl` (stereo not shown) [Example 20], the lipophilicity (logP) in data set [1] is on record as 3.25. For the same compound, the Efficacy in the data set with Alternaria solani and with Pyrenophora teres was 70% throughout.

`CC(c1ccc(Cl)cc1Cl)C1CCCN1C(=O)c1c(C(F)F)nn(C)c1F` (mixture of isomers) [Example 71] displayed a logP in data set [1] of 3.87.

Compound `Cn1nc(C(F)F)c(C(=O)N2CCCC2CCc2ccccc2)c1F` (racemic) [Example 84] displayed a logP in data set [1] of 3.02. Further, the Efficacy in the data set on Alternaria solani is reported as 90%; in the data set on Pyrenophora teres, 100%.

In data set [1], `Cn1nc(C(F)F)c(C(=O)N2CCCC2c2cccs2)c1F` (stereo not shown) [Example 45] had a logP of 2.39. The results for the Efficacy with Alternaria solani and with Pyrenophora teres were 90% and 95%, respectively.

In data set [1], `Cn1nc(C(F)F)c(C(=O)N2CCC[C@H]2COc2ccc(Cl)cc2)c1Cl` [Example 86] gave a logP of 3.44.

For `Cn1nc(C(F)F)c(C(=O)N2CCCC2c2nc3ccccc3s2)c1F` (stereo not shown) [Example 51], the logP in data set [1] worked out at 2.49. Further, the Efficacy with Pyrenophora teres was 95%.

For `Cn1nc(C(F)F)c(C(=O)N2CCCC2c2ccc3ncccc3c2)c1F` (stereo not shown) [Example 47], the logP in data set [1] was 1.14.

Regarding `CC(c1cc(Cl)ccc1Cl)C1CCCN1C(=O)c1c(C(F)F)nn(C)c1F` (mixture of isomers) [Example 73], in data set [1], the logP amounted to 3.76.

In data set [1], `Cn1nc(C(F)F)c(C(=O)N2CCCC2c2ccc(C(C)(C)C)cc2)c1Cl` (stereo not shown) [Example 12] had a logP of 3.90. Further, the results for the Efficacy in the data set on Alternaria solani and in the data set with Pyrenophora teres were 90% and 95%, respectively.

In the case of `Cn1nc(C(F)F)c(C(=O)N2CCCC2c2ccccc2C(F)(F)F)c1F` (stereo not shown) [Example 15], the lipophilicity (logP) in data set [1] came to 3.09. The results for the Efficacy with Alternaria solani and with Pyrenophora teres were 95% and 100%, respectively.

Compound `Cn1nc(C(F)F)c(C(=O)N2CCCC2c2cccc(Br)c2)c1Cl` (stereo not shown) [Example 33] returned a log partition coefficient (logP) in data set [1] of 3.06. Also, the Efficacy with Alternaria solani is recorded as 95%; in the data set with Pyrenophora teres, 100%.

The compound `Cn1nc(C(F)F)c(C(=O)N2CCCC2c2cnc3ccccc3c2)c1F` (stereo not shown) [Example 46] gave a logP in data set [1] of 1.50.

`CC(c1ccccc1Cl)C1CCCN1C(=O)c1c(C(F)F)nn(C)c1Cl` (mixture of isomers) [Example 63] gave a logP in data set [1] of 3.46.

On to `Cn1nc(C(F)F)c(C(=O)N2CCCC2Cc2ccc(C(C)(C)C)cc2)c1F` (racemic) [Example 68], for which the logP in data set [1] is listed as 4.24. The Efficacy in the data set on Alternaria solani is recorded as 94%; in the data set with Pyrenophora teres, 100%.

The compound `Cn1nc(C(F)F)c(C(=O)N2CCCC2CS(=O)(=O)c2ccccc2)c1Cl` (racemic) [Example 88] displayed a log partition coefficient (logP) in data set [1] of 2.20.

`Cn1nc(C(F)F)c(C(=O)N2CCC[C@H]2COc2c(Cl)cc(Cl)cc2Cl)c1Cl` [Example 81] yielded a log partition coefficient (logP) in data set [1] of 4.36. Moreover, the Efficacy with Sphaerotheca fuliginea is listed as 100%.

Usually logP stands for the decadic logarithm of the partition coefficient of the neutral form, usually between octanol and water.
